Measurements from patent US20130316374A1, “BREAST CANCER DIAGNOSTICS” (IMBA - INSTITUT FUR MOLEKULARE BIOTECHNOLOGIE GMBH, priority 2010, published 2013).
“Also recorded” adds a separate entry of the source.

B1: RANKL: Receptor Activator of NF-κB Ligand; recombinant murine RANKL used for stimulation (protein, UniProt O35235 139-316, looked up)
Tumor necrosis factor ligand …: FSGAPAMMEGSWLDVAQRGKPEAQPFAHLTINAASIPSGSHKVTLSSWYHDRGWAKISNMTLSNGKLRVNQDGFYYLYANICFRHHETSGSVPTDYLQLMVYVVKTSIKIPSSHNLMKGGSTKNWSGNSEFHFYSINVGGFFKLRAGEEISIQVSNPSLLDPDQDATYFGAFKVQDID

Assays:
[1] = test system: RANKL; test: RANKL expression in purified mammary epithelial cells (qRT-PCR, Western blot); assay type: in vivo, mouse; details: nulliparous wild type females, 3 days after implantation/oral gavage
Protocol: a,b, MPA induces RANKL expression in mammary epithelial cells. Nulliparous wild type females were treated with oral gavage of DMBA or oil vehicle, s.c. implanted with slow-release MPA pellets, or treated with sham surgery. a, RANKL mRNA was determined in purified mammary epithelial cells by qRT-PCR 3 days after implantation/oral gavage. Data are shown as fold change compared to sham treatment+/−sem. n=3 mice per group. b, Expression of soluble (s) RANKL protein (19 kDa) was assayed on cell lysates from purified mammary epithelial cells by Western blot 3 days after treatment with oil vehicle, DMBA, MPA, or sham surgery. β-actin is shown as a loading control. […] Data are shown as percentage of tumor-free mice after the last DMBA challenge. No significant difference was found between the Cre+ and the Cre− control groups. Median tumor onset for Cre^+ controls was 9 days, for Cre^− controls 11 days, and for RANK^Δmam females 30 days after the last DMBA treatment. d, Representative Southern blot of MPA/DMBA-induced mammary tumors derived from RANK^flox/+; MMTV-Cre+ and RANK^flox/Δ; MMTV-Cre+ (RANK^Δmam) females. […]
Total RNA of tumors was prepared using the RNeasy Mini Kit (Qiagen), according to the manufacturer's instructions. Total RNA (2 μg) was subjected to quantitative (q)RT-PCR analysis. […]

[2] = test system: human SKBR3 breast cancer cells; test: Soft-Agar Colony Formation Assay; assay type: cell-based; details: RANKL (1 μg/ml), 18 days in culture
Protocol: a, Western blotting for phosphorylated (P) IKKα, total IKKα, phosphorylated (P) p65 NFκB, total p65 NFκB, phosphorylated (P) IκBα, and total IκBα in isolated primary mouse mammary gland epithelial cells (MECs) in response to RANKL stimulation (1 μg/ml). […] is shown as loading control. b, Western blotting for IKKα, IKKβ, IKKγ, phosphorylated (P) p65 NFκB, total p65 NFκB, phosphorylated (P) IκBα, and total IκBα in pooled late stage mammary adenocarconimas (n=4 for each lane) that developed in control, RANK^Δmam, and IKKα^Δmam females. β-actin is shown as loading control c, Expression of RANK, CyclinD1, and p21 mRNA in late stage mammary adenocacinomas that developed in control, RANK^Δmam, and IKKα^Δmam females. Expression was determined by qRT-PCR. Data are mean values+/−sem. n=4 per group. d, Soft-Agar Colony Formation Assay. Growth of human SKBR3 breast cancer cells in soft agar in response to stimulation with RANKL (1 μg/ml) or EGF (100 ng/ml). […] Apoptosis was detected by immunostaining for active Caspase 3. f, Apoptotic nuclei of epithelial cells (arrows) are shown for representative mammary gland sections. Magnifications ×40. g, Quantification of mammary epithelial apoptosis. A minimum of 5000 nuclei was counted for each mouse. […]

Molecule | RANKL mRNA and protein expression in mammary epithelial cells [1] | anchorage-independent growth in soft agar [2]
CC(=O)O[C@]1(C(C)=O)CC[C@H]2[C@@H]3C[C@H](C)C4=CC(=O)CC[C@]4(C)[C@H]3CC[C@@]21C [MPA, medroxyprogesterone acetate] | induced RANKL mRNA and protein expression | –
B1 | – | induced growth of SKBR3 cells in soft agar; also recorded: macroscopic colonies formed
